One data set can be described thus: in vitro. Conditions: dog.
The test system of data set [1] is influenza virus A/WSN/33 (H1N1). Description: cytopathic effect (CPE) reduction assay, anti-influenza virus. It is filed as cell-based, influenza A/WSN/33 (H1N1). Background: Protection from cytopathic effect is a common read-out in antiviral testing.
The mark [2] stands for this setting: H1N1|WSN, MDCK, 40 h, read-out: IC50, inhibitory activity against influenza virus A/WSN/33 (H1N1), infected MDCK cells, MOI = 0.1, 40 h incubation, CellTiter-Glo readout.

The values below come from paper PMC9321810, “Antiviral Cyclopropane Acids from Deep-Sea-Derived Fungus Aspergillus sydowii” (Marine Drugs, 2022).

The structures appear in SMILES notation. Read-outs that look alike come from different tables or passages of the source. Bounds are passed on as bounds.

In turn, `COC(=O)C(O)CC(=O)C1(C)C(C)C1CCC(C)=O` (centres unmarked) [Compound 1, sydocyclopropane A] displayed a CC50 at 40 h in the data set “in vitro” of over 100 µM. In data set [1] (setting [2]), the IC50 worked out at 26.7 ± 0.9 µM.
As for `CC(=O)C1(C)C(C)C1CC(=O)O` (centres unmarked) [Compound 2, Sydocyclopropane B], the CC50 at 40 h in the data set “in vitro” is over 100 µM. In addition, the IC50 in data set [1] (setting [2]) came out at 29.5 ± 1.4 µM.
In “in vitro”, `CC(=O)CCC1C(C)C1(C)C(=O)O` (centres unmarked) [Compound 3, sydocyclopropane C] came in with a CC50 at 40 h of over 100 µM. Moreover, the IC50 in data set [1] (setting [2]) was 77.2 ± 0.5 µM.
`CC(=O)CCC1C(C)C1(C)C(=O)O` (centres unmarked) [Compound 4, sydocyclopropane D]: the IC50 in data set [1] (read-out: IC50, inhibitory activity against influenza virus A/WSN/33 (H1N1), infected MDCK cells, MOI = 0.1, 40 h incubation, CellTiter-Glo readout) came to 66.4 ± 1.7 µM.
The compound `CC(=O)C=CC1C(C)C1(C)C(C)=O` (centres unmarked) [Compound 5, hamavellone B] returned a CC50 at 40 h in the data set “in vitro” of over 100 µM. For the same compound, the IC50 in data set [1] (setting [2]) worked out at 35.8 ± 3.2 µM.
Regarding `CCOC(=O)C1=C[C@@H](OC(CC)CC)[C@H](NC(C)=O)[C@@H](N)C1` [OSV, oseltamivir, reference compound], in “in vitro”, the CC50 at 40 h was over 100 µM. Further, in data set [1] (setting [2]), the IC50 stood at 18.1 ± 1.2 µM.
